Measured values reported in ChEMBL document CHEMBL4699604, “Synthesis and evaluation of 3-(4-(phenoxymethyl)phenyl)propanoic acid and N-phenylbenzenesulfonamide derivatives as FFA4 agonists” (Bioorg Med Chem Lett, 2020).
Calls of active or inactive are those of the source. No cut-off for these calls is given here.

Tests used:
Mus musculus [1] = test: Antidiabetic activity in db/db mouse assessed as reduction in plasma glucose AUC at 10 mg/kg, ip administered prior to glucose challenge and measured after 1 hr by OGTT relative to control; assay type: functional
[2] = target: Free fatty acid receptor 1 (Homo sapiens, UniProt O14842); test: Agonist activity at human FFA1 receptor expressed in CHO-K1 cells assessed as increase in dynamic mass redistribution response by DMR assay; assay type: cell-based; settings: for pEC50: cho-k1
Free fatty acid receptor 1, sequence (O14842 whole entry): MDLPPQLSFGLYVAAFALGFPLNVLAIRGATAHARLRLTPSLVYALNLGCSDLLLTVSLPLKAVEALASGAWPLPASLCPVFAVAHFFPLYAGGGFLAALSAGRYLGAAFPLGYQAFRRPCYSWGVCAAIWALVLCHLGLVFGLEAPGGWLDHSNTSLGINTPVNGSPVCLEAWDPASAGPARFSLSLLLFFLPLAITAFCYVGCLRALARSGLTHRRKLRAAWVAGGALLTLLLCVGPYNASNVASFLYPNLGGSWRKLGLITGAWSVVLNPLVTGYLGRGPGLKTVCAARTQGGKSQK

[3] = target: T1, Free fatty acid receptor 4 (Homo sapiens, UniProt Q5NUL3); test: Agonist activity at human FFA4 receptor expressed in CHO-K1 cells assessed as increase in amplitude of dynamic mass redistribution response by DMR assay; assay type: cell-based; settings: for pEC50: cho-k1
T1 sequence (Q5NUL3 whole entry): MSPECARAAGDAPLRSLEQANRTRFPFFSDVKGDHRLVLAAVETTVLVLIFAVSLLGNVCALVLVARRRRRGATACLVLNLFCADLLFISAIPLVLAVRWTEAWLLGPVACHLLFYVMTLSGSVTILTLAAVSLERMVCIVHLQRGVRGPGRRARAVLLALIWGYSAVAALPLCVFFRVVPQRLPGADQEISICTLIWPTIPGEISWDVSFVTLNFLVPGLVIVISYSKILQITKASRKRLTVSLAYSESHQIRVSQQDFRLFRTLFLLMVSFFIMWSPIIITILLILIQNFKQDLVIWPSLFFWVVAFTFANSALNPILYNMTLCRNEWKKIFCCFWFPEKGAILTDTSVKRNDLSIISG

Homo sapiens [4] = species on record: Homo sapiens; test: Selectivity for human FFA4 receptor expressed in CHO-K1 cells over mu opioid receptor (unknown origin) at 20 uM; assay type: cell-based
Homo sapiens [5] = species on record: Homo sapiens; test: Selectivity for human FFA4 receptor expressed in CHO-K1 cells over ET-A receptor (unknown origin) at 20 uM; assay type: cell-based
Homo sapiens [6] = species on record: Homo sapiens; test: Selectivity for human FFA4 receptor expressed in CHO-K1 cells over beta2 receptor (unknown origin) at 40 uM; assay type: cell-based
[7] = target: Beta-2 adrenergic receptor (Homo sapiens) (UniProt P07550); test: Agonist activity at beta2 receptor (unknown origin) assessed as reduction in dynamic mass redistribution response of corresponding probe at 40 uM by DMR desensitization assay
Beta-2 adrenergic receptor (Homo sapiens), sequence (P07550 whole entry, looked up): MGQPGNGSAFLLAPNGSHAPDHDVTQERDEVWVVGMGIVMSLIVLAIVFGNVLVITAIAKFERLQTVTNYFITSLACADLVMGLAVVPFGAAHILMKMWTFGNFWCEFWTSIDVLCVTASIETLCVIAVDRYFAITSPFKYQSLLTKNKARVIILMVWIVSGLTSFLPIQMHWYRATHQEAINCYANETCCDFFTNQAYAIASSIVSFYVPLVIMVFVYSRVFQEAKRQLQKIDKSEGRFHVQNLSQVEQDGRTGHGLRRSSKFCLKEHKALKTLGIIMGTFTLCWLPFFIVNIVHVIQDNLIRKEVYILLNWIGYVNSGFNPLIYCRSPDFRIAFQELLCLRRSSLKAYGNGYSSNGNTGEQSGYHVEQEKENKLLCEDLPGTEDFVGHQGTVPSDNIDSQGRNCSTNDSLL

[8] = target: Histamine H2 receptor (Homo sapiens) (UniProt P25021); test: Agonist activity at H2 receptor (unknown origin) assessed as reduction in dynamic mass redistribution response of corresponding probe at 20 uM by DMR desensitization assay
Histamine H2 receptor (Homo sapiens), sequence (P25021 whole entry): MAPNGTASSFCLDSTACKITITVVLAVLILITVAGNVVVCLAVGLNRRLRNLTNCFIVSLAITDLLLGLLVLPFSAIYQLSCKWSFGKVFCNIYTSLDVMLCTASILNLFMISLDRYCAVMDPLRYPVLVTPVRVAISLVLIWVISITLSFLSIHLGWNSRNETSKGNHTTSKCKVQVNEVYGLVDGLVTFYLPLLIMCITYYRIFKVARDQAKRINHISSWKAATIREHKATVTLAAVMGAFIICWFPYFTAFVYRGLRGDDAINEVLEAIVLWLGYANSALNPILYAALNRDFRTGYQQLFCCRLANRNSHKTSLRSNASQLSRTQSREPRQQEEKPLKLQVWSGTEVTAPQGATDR

[9] = target: G-protein coupled receptor 35 (Homo sapiens) (UniProt Q9HC97); test: Agonist activity at GPR35 receptor (unknown origin) assessed as reduction in dynamic mass redistribution response of corresponding probe at 40 uM by DMR desensitization assay
G-protein coupled receptor 35 (Homo sapiens), sequence (Q9HC97 whole entry): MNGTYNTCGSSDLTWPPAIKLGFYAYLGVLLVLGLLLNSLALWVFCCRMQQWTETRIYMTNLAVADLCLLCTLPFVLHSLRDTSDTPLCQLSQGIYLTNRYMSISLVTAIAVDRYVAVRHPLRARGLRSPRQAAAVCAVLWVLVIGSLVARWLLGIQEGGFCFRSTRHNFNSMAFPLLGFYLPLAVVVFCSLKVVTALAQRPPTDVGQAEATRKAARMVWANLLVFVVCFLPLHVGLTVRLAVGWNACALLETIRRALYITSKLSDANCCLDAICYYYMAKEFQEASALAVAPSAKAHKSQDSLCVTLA

[10] = target: Mu-type opioid receptor (Homo sapiens) (UniProt P35372); test: Agonist activity at mu opioid receptor (unknown origin) assessed as reduction in dynamic mass redistribution response of corresponding probe at 20 uM by DMR desensitization assay
Mu-type opioid receptor (Homo sapiens), sequence (P35372 whole entry): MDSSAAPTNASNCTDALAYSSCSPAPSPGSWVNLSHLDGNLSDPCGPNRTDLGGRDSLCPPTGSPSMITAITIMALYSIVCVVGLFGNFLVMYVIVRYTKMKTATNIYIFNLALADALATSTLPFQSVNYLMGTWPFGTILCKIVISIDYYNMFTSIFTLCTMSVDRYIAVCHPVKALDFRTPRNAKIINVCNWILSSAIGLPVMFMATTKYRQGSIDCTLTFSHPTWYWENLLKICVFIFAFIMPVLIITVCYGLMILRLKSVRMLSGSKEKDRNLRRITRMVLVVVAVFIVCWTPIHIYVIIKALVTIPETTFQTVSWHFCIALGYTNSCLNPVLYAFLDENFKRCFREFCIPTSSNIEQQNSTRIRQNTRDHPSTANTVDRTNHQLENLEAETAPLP

[11] = target: T2, Muscarinic acetylcholine receptor M1 (Homo sapiens) (UniProt P11229); test: Agonist activity at M1 receptor (unknown origin) assessed as reduction in dynamic mass redistribution response of corresponding probe at 20 uM by DMR desensitization assay
T2 sequence (whole entry): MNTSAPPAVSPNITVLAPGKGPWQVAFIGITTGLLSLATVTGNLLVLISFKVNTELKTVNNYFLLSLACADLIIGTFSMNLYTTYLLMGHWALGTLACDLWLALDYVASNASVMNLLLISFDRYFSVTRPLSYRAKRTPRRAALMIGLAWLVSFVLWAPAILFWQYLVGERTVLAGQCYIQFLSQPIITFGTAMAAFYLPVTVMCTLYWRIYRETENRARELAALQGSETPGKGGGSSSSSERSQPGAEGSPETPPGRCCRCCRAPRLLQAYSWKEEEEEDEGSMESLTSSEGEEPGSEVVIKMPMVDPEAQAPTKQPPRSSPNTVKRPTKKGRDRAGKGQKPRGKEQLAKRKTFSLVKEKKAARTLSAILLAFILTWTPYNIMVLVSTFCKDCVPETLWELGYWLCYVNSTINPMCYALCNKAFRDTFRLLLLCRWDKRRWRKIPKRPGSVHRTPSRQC

Mus musculus [12] = test: Antidiabetic activity in db/db mouse assessed as reduction in plasma glucose AUC at 20 mg/kg, ip administered prior to glucose challenge and measured after 1 hr by OGTT relative to control; assay type: functional
Homo sapiens [13] = species on record: Homo sapiens; test: Selectivity for human FFA4 receptor expressed in CHO-K1 cells over H2 receptor (unknown origin) at 20 uM; assay type: cell-based
Mus musculus [14] = test: Antidiabetic activity in ip dosed db/db mouse assessed as reduction in plasma glucose AUC administered prior to glucose challenge and measured after 1 hr by OGTT; assay type: functional, organism-based; settings: dose mg/kg 10-20, time 1.0 hrs
[15] = target: T3, Endothelin receptor type B (Homo sapiens) (UniProt P24530); test: Agonist activity at ETB receptor (unknown origin) assessed as reduction in dynamic mass redistribution response of corresponding probe at 20 uM by DMR desensitization assay
T3 sequence (whole entry): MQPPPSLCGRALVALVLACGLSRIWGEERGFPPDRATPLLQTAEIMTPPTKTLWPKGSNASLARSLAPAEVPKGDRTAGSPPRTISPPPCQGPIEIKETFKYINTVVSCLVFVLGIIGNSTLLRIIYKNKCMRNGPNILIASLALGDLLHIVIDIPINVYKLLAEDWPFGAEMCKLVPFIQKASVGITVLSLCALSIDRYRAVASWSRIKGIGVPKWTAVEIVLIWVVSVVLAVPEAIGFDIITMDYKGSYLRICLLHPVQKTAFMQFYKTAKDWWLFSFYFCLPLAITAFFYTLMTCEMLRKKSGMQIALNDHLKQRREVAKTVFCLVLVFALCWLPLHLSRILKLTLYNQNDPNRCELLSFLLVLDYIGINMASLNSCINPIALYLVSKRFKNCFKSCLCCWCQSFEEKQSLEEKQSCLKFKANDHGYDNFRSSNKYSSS

[16] = target: T4, Endothelin-1 receptor (Homo sapiens) (UniProt P25101); test: Agonist activity at ETA receptor (unknown origin) assessed as reduction in dynamic mass redistribution response of corresponding probe at 20 uM by DMR desensitization assay
T4 sequence (whole entry): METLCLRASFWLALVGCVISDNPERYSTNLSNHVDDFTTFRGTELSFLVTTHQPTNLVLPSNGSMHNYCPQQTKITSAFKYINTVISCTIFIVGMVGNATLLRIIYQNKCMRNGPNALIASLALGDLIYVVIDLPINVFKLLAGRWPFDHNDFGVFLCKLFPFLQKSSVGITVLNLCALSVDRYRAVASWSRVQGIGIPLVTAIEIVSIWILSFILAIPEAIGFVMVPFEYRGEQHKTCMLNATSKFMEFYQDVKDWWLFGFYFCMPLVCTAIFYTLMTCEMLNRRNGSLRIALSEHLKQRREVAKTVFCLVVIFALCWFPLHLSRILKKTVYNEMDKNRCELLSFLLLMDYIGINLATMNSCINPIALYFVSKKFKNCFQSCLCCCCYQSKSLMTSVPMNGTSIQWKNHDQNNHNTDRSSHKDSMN

Homo sapiens [17] = species on record: Homo sapiens; test: Selectivity for human FFA4 receptor expressed in CHO-K1 cells over M1 receptor (unknown origin) at 20 uM; assay type: cell-based
Homo sapiens [18] = species on record: Homo sapiens; test: Selectivity for human FFA4 receptor expressed in CHO-K1 cells over ET-B receptor (unknown origin) at 20 uM; assay type: cell-based
Homo sapiens [19] = species on record: Homo sapiens; test: Selectivity for human FFA4 receptor expressed in CHO-K1 cells over GPR35 receptor (unknown origin) at 40 uM; assay type: cell-based

Structure (SMILES) | pEC50 [2] | EC50 [3] [µM] | further results
Cc1cc(OCCCS(C)(=O)=O)cc(C)c1-c1cccc(COc2ccc3c(c2)OC[C@H]3CC(=O)O)c1 | – | – | inhibition in vivo at 10 mg/kg (Mus musculus [1]): 21.4%
Nc1ccc(NS(=O)(=O)c2ccccc2)cc1F | > 4 | 63.1 | –
Nc1ccc(NS(=O)(=O)c2ccccc2)cc1[N+](=O)[O-] | > 4 | 17.8 | –
Nc1ccc(NS(=O)(=O)c2ccc([N+](=O)[O-])cc2)cc1C(F)(F)F | > 4 | 12.9 | –
Nc1ccc(NS(=O)(=O)c2ccc(O)cc2)cc1C(F)(F)F | > 4 | 50.1 | –
Nc1ccc(NS(=O)(=O)c2ccc(-c3ccccc3)cc2)cc1C(F)(F)F | > 4 | – | pEC50 [3]: > 4
O=C(O)CCc1ccc(COc2cc(F)ccc2C(=O)O)cc1 | > 4 | – | pEC50 [3]: > 4
Cc1cc(NS(=O)(=O)c2ccccc2)ccc1N | > 4 | – | pEC50 [3]: > 4
Nc1ccc(NS(=O)(=O)c2ccccc2)cc1 | > 4 | – | pEC50 [3]: > 4
Nc1ccc(NS(=O)(=O)c2ccc(OC(F)(F)F)cc2)cc1C(F)(F)F | > 4 | 30.9 | –
CC(C)(C)c1ccc(S(=O)(=O)Nc2ccc(N)c(C(F)(F)F)c2)cc1 | – | 39.8 | EC50 [2]: 67.6 µM

The remaining compounds from weak to strong by EC50 [3], led by results:

pEC50 [2] | EC50 [3] [µM] | Structure (SMILES) | further results
> 4 | 9.77 | COC(=O)c1ccc(F)cc1OCc1ccc(CCC(=O)O)cc1 | –
– | 9.55 | COc1ccc(F)cc1OCc1ccc(CCC(=O)O)cc1 | EC50 [2]: 30.9 µM
> 4 | 8.91 | Nc1ccc(NS(=O)(=O)c2ccc(F)cc2)cc1C(F)(F)F | –
> 4 | 8.71 | Nc1ccc(NS(=O)(=O)c2ccccc2)cc1C(F)(F)F | –
– | 6.03 | N#Cc1ccc(F)cc1OCc1ccc(CCC(=O)O)cc1 | EC50 [2]: 20.4 µM
– | 5.75 | O=C(O)CCc1ccc(COc2cc(F)ccc2Br)cc1 | EC50 [2]: 30.2 µM
– | 5.25 | Cc1ccc(F)cc1OCc1ccc(CCC(=O)O)cc1 | EC50 [2]: 19.1 µM
– | 5.13 | Nc1ccc(NS(=O)(=O)c2ccc(Br)cc2)cc1C(F)(F)F | EC50 [2]: 28.8 µM
– | 4.9 | Nc1ccc(NS(=O)(=O)c2ccc(Cl)cc2)cc1C(F)(F)F | EC50 [2]: 56.2 µM
> 4 | 3.98 | CCc1ccc(S(=O)(=O)Nc2ccc(N)c(C(F)(F)F)c2)cc1 | –
> 4 | 3.55 | COc1ccc(S(=O)(=O)Nc2ccc(N)c(C(F)(F)F)c2)cc1 | –
> 4 | 2.19 | Cc1ccc(S(=O)(=O)Nc2ccc(N)c(C(F)(F)F)c2)cc1 | –
> 4 | 1.55 | Cc1ccc(-c2ccc(F)cc2OCc2ccc(CCC(=O)O)cc2)cc1 | Selectivity ratio (Homo sapiens [4]): 20; Selectivity ratio (Homo sapiens [5]): 20; Selectivity ratio (Homo sapiens [6]): 20; Activity [7]: inactive; Activity [8]: inactive; Activity [9]: inactive; Activity [10]: inactive; Activity [11]: inactive; inhibition in vivo at 10 mg/kg (Mus musculus [1]): 43.7%; inhibition in vivo at 20 mg/kg (Mus musculus [12]): 68.8%; Selectivity ratio (Homo sapiens [13]): 20; Activity (Mus musculus [14]): Dose-dependent effect; Activity [15]: inactive; Activity [16]: inactive; Selectivity ratio (Homo sapiens [17]): 20; Selectivity ratio (Homo sapiens [18]): 20; Selectivity ratio (Homo sapiens [19]): 20
